According to ChEMBL document CHEMBL1121668, “(Phenylthio)phenylamine derivatives as potential antiinflammatory compounds” (J Med Chem, 1981):

Experiments:
Rattus norvegicus [1] = experiment: Compound is evaluated for antiinflammatory activity using carrageenan-induced paw edema method in rat at a dose 5 mg/kg ip after 3h; format: functional; settings: route intraperitoneal
Rattus norvegicus [2] = experiment: Compound is evaluated for antiinflammatory activity using carrageenan-induced paw edema method in rat at a dose 5 mg/kg ip after 2 hr; format: functional; settings: route intraperitoneal
[3] = Lethal dose is determined in mice (iv); format: toxicity, organism-based; settings: mouse, in vivo
[4] = Lethal dose is determined in mice (po); format: toxicity, organism-based; settings: mouse, in vivo
Rattus norvegicus [5] = experiment: Compound is evaluated for antiinflammatory activity using carrageenan-induced paw edema method in rat at a dose 5 mg/kg ip after 1 hr; format: functional; settings: route intraperitoneal
Rattus norvegicus [6] = experiment: Compound is evaluated for antiinflammatory activity using carrageenan-induced paw edema method in rat at a dose 500 mg/kg ip after 2 hr; format: functional; settings: route intraperitoneal
Rattus norvegicus [7] = experiment: Compound is evaluated for antiinflammatory activity using carrageenan-induced paw edema method in rat at a dose 500 mg/kg ip after 1 hr; format: functional; settings: route intraperitoneal
Rattus norvegicus [8] = experiment: Compound is evaluated for antiinflammatory activity using carrageenan-induced paw edema method in rat at a dose 500 mg/kg ip after 3h; format: functional; settings: route intraperitoneal
Rattus norvegicus [9] = experiment: Compound is evaluated for antiinflammatory activity using carrageenan-induced paw edema method in rat at a dose 200 mg/kg po after 3h; format: functional
Rattus norvegicus [10] = experiment: Compound is evaluated for antiinflammatory activity using carrageenan-induced paw edema method in rat at a dose 200 mg/kg po after 2 hr; format: functional
Rattus norvegicus [11] = experiment: Compound is evaluated for antiinflammatory activity using carrageenan-induced paw edema method in rat at a dose 200 mg/kg po after 1 hr; format: functional
Rattus norvegicus [12] = experiment: Compound is evaluated for antiinflammatory activity using carrageenan-induced paw edema method in rat at a dose 25 mg/kg ip after 3h; format: functional; settings: route intraperitoneal
Rattus norvegicus [13] = experiment: Compound is evaluated for antiinflammatory activity using carrageenan-induced paw edema method in rat at a dose 25 mg/kg ip after 2 hr; format: functional; settings: route intraperitoneal
Rattus norvegicus [14] = experiment: Compound is evaluated for antiinflammatory activity using carrageenan-induced paw edema method in rat at a dose 25 mg/kg ip after 1 hr; format: functional; settings: route intraperitoneal
Rattus norvegicus [15] = experiment: Compound is evaluated for antiinflammatory activity using carrageenan-induced paw edema method in rat at a dose 30 mg/kg ip after 3h; format: functional; settings: route intraperitoneal
Rattus norvegicus [16] = experiment: Compound is evaluated for antiinflammatory activity using carrageenan-induced paw edema method in rat at a dose 30 mg/kg ip after 1 hr; format: functional; settings: route intraperitoneal
Rattus norvegicus [17] = experiment: Compound is evaluated for antiinflammatory activity using carrageenan-induced paw edema method in rat at a dose 30 mg/kg ip after 2 hr; format: functional; settings: route intraperitoneal
Rattus norvegicus [18] = experiment: Compound is evaluated for antiinflammatory activity using carrageenan-induced paw edema method in rat at a dose 10 mg/kg ip after 1 hr; format: functional; settings: route intraperitoneal
Rattus norvegicus [19] = experiment: Compound is evaluated for antiinflammatory activity using carrageenan-induced paw edema method in rat at a dose 10 mg/kg ip after 3h; format: functional; settings: route intraperitoneal
Rattus norvegicus [20] = experiment: Compound is evaluated for antiinflammatory activity using carrageenan-induced paw edema method in rat at a dose 10 mg/kg ip after 2 hr; format: functional; settings: route intraperitoneal

`CCN(CC)CC(=O)N(C)c1ccc(Sc2ccccc2)cc1` gave a Reduction (Rattus norvegicus [1]) of 52%, a Reduction (Rattus norvegicus [2]) of 50% and an LD50 [3] of 30 mg/kg. For the same compound, the LD50 [4] was 140 mg/kg and the Reduction (Rattus norvegicus [5]) was 53%.

Work on `CN(C(=O)C1CC1)c1ccc(Sc2ccccc2)cc1` yielded a Reduction (Rattus norvegicus [6]) of 48%, a Reduction (Rattus norvegicus [7]) of 57% and a Reduction (Rattus norvegicus [8]) of 37%. For the same compound, the LD50 [3] was greater than 1000 mg/kg.

`CN(C(=O)c1ccc(Cl)cc1)c1ccc(Sc2ccccc2)cc1` showed a Reduction (Rattus norvegicus [6]) of 60%, a Reduction (Rattus norvegicus [7]) of 65% and a Reduction (Rattus norvegicus [8]) of 48%. The LD50 [3] was greater than 1000 mg/kg.

Work on `CN(C(=O)C1CN(c2ccccc2)C(=O)C1=O)c1ccc(Sc2ccccc2)cc1` (stereo unspecified) yielded a Reduction (Rattus norvegicus [9]) of 0%, a Reduction (Rattus norvegicus [10]) of 5% and a Reduction (Rattus norvegicus [11]) of 36%. It also gave an LD50 [4] greater than 1000 mg/kg.

Compound `CC(C)N1CC(C(=O)N(C)c2ccc(Sc3ccccc3)cc2)C(=O)C1=O` (stereo unspecified) has a Reduction (Rattus norvegicus [9]) of 18%, a Reduction (Rattus norvegicus [10]) of 26% and a Reduction (Rattus norvegicus [11]) of 30%. It also gave an LD50 [4] greater than 1000 mg/kg.

Work on `CCN(CC)CC(=O)Nc1ccc(Sc2ccccc2)cc1` yielded a Reduction (Rattus norvegicus [12]) of 22%, a Reduction (Rattus norvegicus [13]) of 47% and a Reduction (Rattus norvegicus [14]) of 30%. It also gave an LD50 [3] of 45 mg/kg and an LD50 [4] of 275 mg/kg.

Work on `CN(C(=O)CN1CCCCC1)c1ccc(Sc2ccccc2)cc1` yielded a Reduction (Rattus norvegicus [1]) of 34%, a Reduction (Rattus norvegicus [2]) of 29% and an LD50 [3] of 25 mg/kg. For the same compound, the Reduction (Rattus norvegicus [5]) was 40%.

`CC(=O)Oc1ccccc1C(=O)N(C)c1ccc(Sc2ccccc2)cc1` gave a Reduction (Rattus norvegicus [6]) of 55%, a Reduction (Rattus norvegicus [7]) of 59% and a Reduction (Rattus norvegicus [8]) of 32%. It also gave an LD50 [3] of 1000 mg/kg.

With `CN1CC(C(=O)N(C)c2ccc(Sc3ccccc3)cc2)C(=O)C1=O` (stereo unspecified) the Reduction (Rattus norvegicus [9]) was 0%, the Reduction (Rattus norvegicus [10]) was 0% and the Reduction (Rattus norvegicus [11]) was 36%. For the same compound, the LD50 [3] was greater than 1000 mg/kg.

With `CCN(CC)CC(=O)Nc1ccc(Sc2ccc(Cl)cc2)cc1` the Reduction (Rattus norvegicus [12]) was 72%, the Reduction (Rattus norvegicus [13]) was 74% and the Reduction (Rattus norvegicus [14]) was 56%. The LD50 [3] was 45 mg/kg and the LD50 [4] was 275 mg/kg.

With `CCN(CC)CC(=O)Nc1ccccc1Sc1ccc(Cl)cc1` the Reduction (Rattus norvegicus [15]) was 68%, the Reduction (Rattus norvegicus [16]) was 65% and the LD50 [3] was 55 mg/kg. It also gave an LD50 [4] of 35 mg/kg and a Reduction (Rattus norvegicus [17]) of 63%.

In the case of `CN(C)CC(=O)N(C)c1ccc(Sc2ccccc2)cc1`, the Reduction (Rattus norvegicus [1]) is reported as 22%, the Reduction (Rattus norvegicus [2]) is reported as 14% and the LD50 [3] is reported as 50 mg/kg. For the same compound, the Reduction (Rattus norvegicus [5]) was 18%.

With `CCN(CC)CC(=O)N(C)c1ccc(Sc2ccc(Cl)cc2)cc1` the Reduction (Rattus norvegicus [18]) was 13%, the Reduction (Rattus norvegicus [19]) was 0% and the LD50 [3] was 45 mg/kg. The LD50 [4] was 175 mg/kg and the Reduction (Rattus norvegicus [20]) was 15%.

`CN(C(=O)CN1CCOCC1)c1ccc(Sc2ccccc2)cc1` gave a Reduction (Rattus norvegicus [18]) of 55%, a Reduction (Rattus norvegicus [19]) of 43% and an LD50 [3] of 75 mg/kg. It also gave a Reduction (Rattus norvegicus [20]) of 45%.

In the case of `CCOC(=O)C1=C(Nc2ccc(Sc3ccccc3)cc2)C(=O)N(C(C)C)C1`, the Reduction (Rattus norvegicus [9]) is reported as 30%, the Reduction (Rattus norvegicus [10]) is reported as 30% and the Reduction (Rattus norvegicus [11]) is reported as 22%. The LD50 [4] was greater than 1000 mg/kg.

Work on `CN(C(=O)CN1CCCC1)c1ccc(Sc2ccccc2)cc1` yielded a Reduction (Rattus norvegicus [1]) of 23%, a Reduction (Rattus norvegicus [2]) of 18% and an LD50 [3] of 35 mg/kg. It also gave a Reduction (Rattus norvegicus [5]) of 18%.

With `CN1CCN(CC(=O)N(C)c2ccc(Sc3ccccc3)cc2)CC1` the Reduction (Rattus norvegicus [18]) was 45%, the Reduction (Rattus norvegicus [19]) was 38% and the LD50 [3] was 75 mg/kg. For the same compound, the Reduction (Rattus norvegicus [20]) was 30%.

Compound `COc1ccc2c(c1)c(CC(=O)O)c(C)n2C(=O)c1ccc(Cl)cc1` [INDOMETHACIN] has a Reduction (Rattus norvegicus [18]) of 61%, a Reduction (Rattus norvegicus [19]) of 67% and a Reduction (Rattus norvegicus [20]) of 65%.
